Earlier results as cited in US20240261238A1, “METHOD OF TREATING DRUG RESISTANT EPILEPSY” (ICAHN SCHOOL OF MEDICINE AT MOUNT SINAI, priority 2021, published 2024).

Experiments:
[1] = intranasal for treatment of pain vs intravenous ketamine studies in depression
[2] = 0.5 mg/kg intravenous infusion given over 40 minutes
[3] = intranasal, total dose
NMDA receptors = conditions: read-out: Ki for binding to NMDA receptors
[4] = iontophoretic patch, 33 men and women

Row | SMILES | intranasal plasma levels lower than in intravenous studies [1] | serious adverse events caused by IV administration | time by which side effects typically abate post-infusion (IV, euphoria, elevated BP, increased libido, perceptual disturbances) [min] | duration of improvements in depression [2] | serious adverse events [2] | time to improvements in depression post-injection [2] [h] | dose at which mild adverse effects (dysphoria and/or hallucinations) can occur [3] | dose usually required for mild adverse effects (dysphoria and/or hallucinations) [3] | Ki (NMDA receptors) [nM] | potency relative to racemic mixture of ketamine [4]
1 | CNC1(c2ccccc2Cl)CCCCC1=O (racemic) [ketamine, 2-(2-chlorophenyl)-2-(methylamino)-cyclohexanone] | 3-4 fold | No serious adverse events | ≤ 80 | up to 1 week | no serious adverse events | ≤ 2 | greater than 50 mg | greater than 100 mg | – | –
2 | CN[C@@]1(c2ccccc2Cl)CCCCC1=O [R(−)] | – | – | – | – | – | – | – | – | 1100 | –
3 | CN[C@]1(c2ccccc2Cl)CCCCC1=O [S(+)-ketamine] | – | – | – | – | – | – | – | – | 3200 | two times more potent
